Values of other authors as cited in US11459445B2, “Composition and molded body” (SUMITOMO CHEMICAL COMPANY, LIMITED, priority 2018, dated 2022).

Tested on: C. violaceum CV026
Details: N-hexanoyl homoserine lactone added; compared with no caffeine; Sensors 2013, 13, 5117-5129

For Cn1c(=O)c2c(ncn2C)n(C)c1=O [caffeine], the “amount of violet pigment (violacein) produced” value is given as “smaller”.
